Experimental data reported in patent US9695149B2, “1,2,6-substituted benzimidazoles as flap modulators” (JANSSEN PHARMACEUTICA NV, priority 2013, dated 2017).
Counter-ions that a name gives are not always drawn.

Assays:
[1] = test system: leukotriene pathway in human whole blood; experiment: Human whole blood assay (LTB4, A23187-stimulated); format: cell-based; conditions: human whole blood diluted 1:1 in RPMI, calcium ionophore A23187 7 μg/mL, 30 min
Experimental: (§1) The ability of the compounds of the present invention to treat a FLAP-mediated disease and/or disorder, or associated symptoms or complications thereof, was determined using the following procedures. Binding assay data represent the average value obtained from two different assay plates, with samples run in duplicate on each plate. Human whole blood assay data represent a single replicate on an assay plate using whole blood from at least one healthy donor.
An in vitro cellular assay was performed using human whole blood collected in heparin-containing tubes, which was used to test the ability of compounds to modulate the leukotriene pathway in human whole blood. The blood was diluted 1:1 in RPMI medium, pre-incubated for 15 min at 37° Celsius with test compounds at various concentrations, and then stimulated with calcium ionophore, A23187 (7 μg/mL), for 30 min at 37° Celsius. The samples were then centrifuged and plasma was removed. The plasma was diluted in assay buffer and LTB4 levels were measured using a commercial kit (Enzo Life Sciences). The concentration of each compound that was required for half-maximal inhibition (modulation) of […] (IC50) was calculated by a 4-parameter equation using the program GraphPad Prism (GraphPad software). For analysis, data are imported into 3DX and aggregated as the average of duplicates of the calculated ratios in order to calculate Ki and IC50 values. Numbers in parentheses are the number of runs for the assay.

human FLAP = human FLAP (Homo sapiens (Human), UniProt P20292); experiment: FLAP binding assay (HTRF format); conditions: human FLAP-containing Sf-9 membranes, wild type; average of runs
Experimental: as §1
The assay below is used to test the modulatory activity of compounds against FLAP. Human and mouse FLAP-encoding DNA was amplified by polymerase chain reaction and cloned into pFastBac1 (Invitrogen) with a NH2-terminal 6-His tag for expression in Spodoptera frugiperda (Sf-9) cells. FLAP-containing membranes were prepared as was a FITC-labeled FLAP modulator (3-(3-(tert-butylthio)-1-(4-chlorobenzyl)-5-(quinolin-2-ylmethoxy)-1H-indol-2-yl)-2,2-dimethylpropanoic acid). The FLAP binding assay is performed in HTRF format (homogeneous time resolved fluorescence). […] The reaction is allowed to proceed for two hours after which the plate is read on an Envision plate reader in HTRF mode. Data are expressed as a HTRF ratio.
For human FLAP binding assays, data are analyzed with 3DX Explorer software. […] For analysis, data from multiple runs are averaged and each compound may be tested in 2 to 20 runs. Each run comprises two plates and each plate includes duplicates. Data from each plate is averaged and data are imported into 3DX. The data from multiple runs are aggregated as the average of duplicates of the calculated ratios in order to calculate Ki and IC50 values. Numbers in parentheses are the number of runs for the assay.

human FLAP, sequence (P20292 whole entry): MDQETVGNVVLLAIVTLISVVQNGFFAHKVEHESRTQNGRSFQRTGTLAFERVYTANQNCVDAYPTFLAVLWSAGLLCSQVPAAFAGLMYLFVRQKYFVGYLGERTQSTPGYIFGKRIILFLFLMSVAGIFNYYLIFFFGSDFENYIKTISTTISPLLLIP

SMILES | IC50 ([1]; Homo sapiens, 0.5 h) | Ki (human FLAP) | IC50 [1]
Cc1ccc(COc2ccc3nc(C4CCCC[C@H]4C(=O)O)n(Cc4cccc(N5CCCC(F)(F)C5)c4)c3c2)nc1 (mixture of isomers) [Example 222, racemic cis-2-{1-[3-(3,3-Difluoropiperidin-1-yl)benzyl]-6-[(5-methylpyridin-2-yl)methoxy]-1H-benzimidazol-2-yl}cyclohexanecarboxylic acid] | 310 nM | 3.8 nM | 
Cc1ccc(COc2ccc3nc(C4CCCC[C@H]4C(=O)O)n(Cc4cccc(C)c4)c3c2)nc1 (mixture of isomers) [Example 201, racemic cis-2-{1-(3-Methylbenzyl)-6-[(5-methylpyridin-2-yl)methoxy]-1H-benzimidazol-2-yl}cyclohexanecarboxylic acid] |  | 12 nM | 1680 nM
Cc1cnc(COc2ccc3nc(C4CCCC[C@H]4C(=O)O)n(Cc4ccc(N5CCC(C(F)(F)F)CC5)cc4F)c3c2)c(F)c1 (mixture of isomers) [Example 192, racemic cis-2-(6-[(3-Fluoro-5-methylpyridin-2-yl)methoxy]-1-{2-fluoro-4-[4-(trifluoromethyl)piperidin-1-yl]benzyl}-1H-benzimidazol-2-yl)cyclohexanecarboxylic acid] | 110 nM | 0.95 nM | 
Cn1ccc(COc2ccc3nc(C4CCCC[C@H]4C(=O)O)n(Cc4cccc(N5CCCCC5)c4)c3c2)n1 (mixture of isomers) [Example 204, racemic cis-2-{6-[(1-Methyl-1H-pyrazol-3-yl)methoxy]-1-(3-piperidin-1-ylbenzyl)-1H-benzimidazol-2-yl}cyclohexanecarboxylic acid] | 240 nM | 31 nM | 
CCC(CC)(Cc1nc2ccc(OCc3ccc(C)cn3)cc2n1Cc1ccc(N2CCC(F)(F)C2)cc1)C(=O)O [Example 226, 2-({1-[4-(3,3-Difluoropyrrolidin-1-yl)benzyl]-6-[(5-methylpyridin-2-yl)methoxy]-1H-benzimidazol-2-yl}methyl)-2-ethylbutanoic acid] | ~3200 nM | 17 nM | 
Cc1ccc(COc2ccc3nc(C4CCCC[C@H]4C(=O)O)n(Cc4cccc(Br)c4)c3c2)nc1 (mixture of isomers) [Example 228, racemic cis-2-{1-(3-Bromobenzyl)-6-[(5-methylpyridin-2-yl)methoxy]-1H-benzimidazol-2-yl}cyclohexanecarboxylic acid] | 4010 nM | 6.8 nM | 
Cn1ccc(COc2ccc3nc(C4CCCC[C@H]4C(=O)O)n(Cc4cc(Br)ccc4F)c3c2)n1 (mixture of isomers) [Example 233, racemic cis-2-{1-(5-Bromo-2-fluorobenzyl)-6-[(1-methyl-H-pyrazol-3-yl)methoxy]-1H-benzimidazol-2-yl}cyclohexanecarboxylic acid] | 2260 nM | 35 nM | 
Cc1ccc(COc2ccc3nc(C4CCCC[C@H]4C(=O)O)n(Cc4cccc(C)c4)c3c2)nc1 (mixture of isomers) [Example 200, racemic trans-2-{1-(3-Methylbenzyl)-6-[(5-methylpyridin-2-yl)methoxy]-1H-benzimidazol-2-yl}cyclohexanecarboxylic acid] | 3140 nM | 30 nM | 
Cc1ccc(COc2ccc3nc(C4CCCC[C@H]4C(=O)O)n(Cc4ccccc4C)c3c2)nc1 (mixture of isomers) [Example 207, racemic cis-2-{1-(2-Methylbenzyl)-6-[(5-methylpyridin-2-yl)methoxy]-1H-benzimidazol-2-yl}cyclohexanecarboxylic acid] |  | 31 nM | 1810 nM
Cn1ccc(COc2cc(F)c3nc(C4CCCC[C@H]4C(=O)O)n(Cc4ccc(N5CCC(F)(F)C5)cc4)c3c2)n1 (mixture of isomers) [Example 236, racemic cis-2-{1-[4-(3,3-Difluoropyrrolidin-1-yl)benzyl]-4-fluoro-6-[(1-methyl-1H-pyrazol-3-yl)methoxy]-1H-benzimidazol-2-yl}cyclohexanecarboxylic acid] | 1650 nM | 2.4 nM | 
COc1ncc(-c2cccc(Cn3c(C4CCCC[C@H]4C(=O)O)nc4ccc(OCc5ccc(C)cn5)cc43)c2)cn1 (mixture of isomers) [Example 195, racemic cis-2-{1-[3-(2-Methoxypyrimidin-5-yl)benzyl]-6-[(5-methylpyridin-2-yl)methoxy]-1H-benzimidazol-2-yl}cyclohexanecarboxylic acid] | 1430 nM | 19 nM | 
Cc1ccc(COc2ccc3nc(C4CCCC[C@H]4C(=O)O)n(Cc4cc(N5CCCCC5)ccc4F)c3c2)nc1 (mixture of isomers) [Example 209, racemic cis-2-{1-(2-Fluoro-5-piperidin-1-ylbenzyl)-6-[(5-methylpyridin-2-yl)methoxy]-1H-benzimidazol-2-yl}cyclohexanecarboxylic acid] | 150 nM | 3.8 nM | 
Cc1cnc(COc2ccc3nc(CC(C)(C)C(=O)O)n(Cc4cc(Br)ccc4F)c3c2)c(F)c1 [Example 193, 3-{1-(5-Bromo-2-fluorobenzyl)-6-[(3-fluoro-5-methylpyridin-2-yl)methoxy]-1H-benzimidazol-2-yl}-2,2-dimethylpropanoic acid] | 5550 nM | 120 nM | 
CCC(CC)(Cc1nc2ccc(OCc3ncc(C)cc3F)cc2n1Cc1ccc(N2CCC(C(F)(F)F)CC2)cc1)C(=O)O [Example 194, 2-Ethyl-2-[(6-[(3-fluoro-5-methylpyridin-2-yl)methoxy]-1-{4-[4-(trifluoromethyl)piperidin-1-yl]benzyl}-1H-benzimidazol-2-yl)methyl]butanoic acid] | 580 nM | 5.7 nM | 
Cn1ccc(COc2ccc3nc(C4CCCC[C@H]4C(=O)O)n(Cc4cccc(N5CC(F)(F)C5)c4)c3c2)n1 (mixture of isomers) [Example 205, racemic cis-2-{1-[3-(3,3-Difluoroazetidin-1-yl)benzyl]-6-[(1-methyl-1H-pyrazol-3-yl)methoxy]-1H-benzimidazol-2-yl}cyclohexanecarboxylic acid as the trifluoroacetic acid salt] | 1670 nM | 21 nM | 
Cc1ccc(COc2ccc3nc(C4CCCC[C@H]4C(=O)O)n(Cc4ccccc4C)c3c2)nc1 (mixture of isomers) [Example 206, racemic trans-2-{1-(2-Methylbenzyl)-6-[(5-methylpyridin-2-yl)methoxy]-1H-benzimidazol-2-yl}cyclohexanecarboxylic acid] | 1270 nM | 45 nM | 
Cc1ccc(COc2ccc3nc(C4CCCC[C@H]4C(=O)O)n(Cc4cccc(N5CCC(F)(F)CC5)c4)c3c2)nc1 (mixture of isomers) [Example 221, racemic cis-2-{1-[3-(4,4-Difluoropiperidin-1-yl)benzyl]-6-[(5-methylpyridin-2-yl)methoxy]-1H-benzimidazol-2-yl}cyclohexanecarboxylic acid] | 500 nM | 6.6 nM | 
Cc1cnc(COc2ccc3nc(CC(C)(C)C(=O)O)n(Cc4cccc(Br)c4)c3c2)c(F)c1 [Example 191, 3-{1-(3-Bromobenzyl)-6-[(3-fluoro-5-methylpyridin-2-yl)methoxy]-1H-benzimidazol-2-yl}-2,2-dimethylpropanoic acid] | > 10000 nM | 70 nM | 
CCC(CC)(Cc1nc2ccc(OCc3ccn(C)n3)cc2n1Cc1cccc(N2CCCCC2)c1)C(=O)O [Example 212, 2-Ethyl-2-({6-[(1-methyl-1H-pyrazol-3-yl)methoxy]-1-(3-piperidin-1-ylbenzyl)-1H-benzimidazol-2-yl}methyl)butanoic acid] | 1080 nM | 90 nM | 
Cn1ccc(COc2ccc3nc(C4CCCC[C@H]4C(=O)O)n(Cc4cccc(Br)c4)c3c2)n1 (single isomer, unassigned) [Example 197, (1S*,2R*)-2-{1-(3-Bromobenzyl)-6-[(1-methyl-1H-pyrazol-3-yl)methoxy]-1H-benzimidazol-2-yl}cyclohexanecarboxylic acid] | 1810 nM | 6.6 nM | 
Cn1ccc(COc2ccc3nc(C4CCCC[C@H]4C(=O)O)n(Cc4cccc(N5CCC(F)(F)CC5)c4)c3c2)n1 (mixture of isomers) [Example 203, racemic cis-2-{1-[3-(4,4-Difluoropiperidin-1-yl)benzyl]-6-[(1-methyl-1H-pyrazol-3-yl)methoxy]-1H-benzimidazol-2-yl}cyclohexanecarboxylic acid] | 730 nM | 18 nM | 
Cc1ccc(COc2ccc3nc(C4CCCC[C@H]4C(=O)O)n(Cc4cccc(N5CC(F)(F)C5)c4)c3c2)nc1 (mixture of isomers) [Example 219, racemic cis-2-{1-[3-(3,3-Difluoroazetidin-1-yl)benzyl]-6-[(5-methylpyridin-2-yl)methoxy]-1H-benzimidazol-2-yl}cyclohexanecarboxylic acid] | 1600 nM | 9.1 nM | 
